Laboratory results published in patent publication US20260232818A1, “PHARMACEUTICAL COMPOSITIONS COMPRISING PROTEIN COMPLEXES” (Onchilles Pharma, Inc., priority 2023, published 2026).

Experiments:
[1] = test system: human ovarian cancer cells; assay: Selective cancer cell-killing in ovarian cancer patient samples, cancer cells; format: cell-based; conditions: 24 hours; Calcein-AM; FIG. 9B
Description: Evaluating selective cancer cell-killing in ovarian cancer patient samples. Cancer and non-cancer cells were isolated from primary tumors, intraperitoneal (IP) fluid, omental adipose tissue (common metastatic site), and blood from 6 ovarian cancer patients. The following cells were isolated and tested: cancer cells (digested tumor with depletion of fibroblasts, CD45+ cells, and […] cells), non-cancer immune cells (digested omental cells with depletion of neutrophils or CD45+ cells from tumor tissue), peripheral blood mononuclear cells (PBMCs; B cells, T cells, monocytes, and NK cells), fibroblasts (isolated from tumor samples using fibroblast isolation kit), and IP cells (composed of >90% CD45+ immune cells, including B, T, myeloid, NK cells). Isolated cells were plated and exposed to A2M:MutF, doxorubicin (standard of care chemotherapy), or oxaliplatin (standard of care chemotherapy) for 24 hours. Cell viability was assessed by Calcein-AM.

[2] = Plasma Protection Assay (MutF activity on AAPV-AMC in plasma); format: biochemical; conditions: mouse plasma; MutF 400 nM; A2M:MutF 1:2; FIG. 3C
Experimental: Plasma Protection Assay. MutF (400 nM) was mixed with 200 nM A2M to reach a 1:2 molar ratio (A2M:MutF), followed by 30 minutes incubation at 37° C. in PBS. A plasma protection assay was performed in 384-black well-coated plate by adding 10 μL of sample with either 10 μL of PBS or 10 μL of mouse plasma samples in duplicates. 20 μL of the substrate AAPV-AMC at a concentration of 100 μM was added. Kinetics were measured on Varioskan LUX: 380 nm ex/460 nm (5 nm bandwidth), 37° C., top, 100 msec, 2 min for 16 reads. Vo was calculated as activity measurement.

[3] = Coagulation Assay (PT, PTT, fibrinogen in plasma after IV injection); format: in vivo, Mice; conditions: mouse plasma 5 min after IV injection of 480 ug
Experimental: Coagulation Assay. Mice were injected with 200 μL of 480 ug of MutF or purified A2M:MutF protein complexes at a 1:2 molar ratio. Blood was collected in sodium citrate tubes and centrifuged at 1500×g for 15 minutes. 300 μl of plasma were frozen and shipped to IDEXX to be analyzed for Prothrombin time, Partial Thromboplastin time, and concentration of Fibrinogen.

[4] = biological target: T1, Human fibrinogen (Homo sapiens, UniProt P02671+P02675+P02679); assay: Fibrinogen cleavage assay; format: biochemical; conditions: 1 hr at 37° C.; Western Blot; FIG. 6B
T1 construct: purchased Sigma
T1 sequence (P02671 20-629 limits assumed): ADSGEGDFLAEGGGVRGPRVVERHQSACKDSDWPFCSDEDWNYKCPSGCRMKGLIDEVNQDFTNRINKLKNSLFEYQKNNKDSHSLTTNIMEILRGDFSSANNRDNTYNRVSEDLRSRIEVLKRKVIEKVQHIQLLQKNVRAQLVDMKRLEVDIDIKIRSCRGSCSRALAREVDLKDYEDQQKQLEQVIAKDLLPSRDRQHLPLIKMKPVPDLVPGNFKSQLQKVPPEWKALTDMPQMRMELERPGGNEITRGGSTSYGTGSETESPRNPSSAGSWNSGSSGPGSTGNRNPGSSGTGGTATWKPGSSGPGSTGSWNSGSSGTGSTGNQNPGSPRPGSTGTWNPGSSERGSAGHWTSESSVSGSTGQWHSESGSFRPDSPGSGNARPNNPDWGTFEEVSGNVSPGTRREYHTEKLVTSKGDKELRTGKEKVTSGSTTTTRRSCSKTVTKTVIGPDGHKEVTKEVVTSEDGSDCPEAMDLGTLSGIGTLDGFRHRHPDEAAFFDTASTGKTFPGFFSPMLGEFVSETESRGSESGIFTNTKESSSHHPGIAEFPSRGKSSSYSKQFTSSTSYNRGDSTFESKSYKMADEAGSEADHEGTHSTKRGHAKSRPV
T1 sequence (P02675 31-491): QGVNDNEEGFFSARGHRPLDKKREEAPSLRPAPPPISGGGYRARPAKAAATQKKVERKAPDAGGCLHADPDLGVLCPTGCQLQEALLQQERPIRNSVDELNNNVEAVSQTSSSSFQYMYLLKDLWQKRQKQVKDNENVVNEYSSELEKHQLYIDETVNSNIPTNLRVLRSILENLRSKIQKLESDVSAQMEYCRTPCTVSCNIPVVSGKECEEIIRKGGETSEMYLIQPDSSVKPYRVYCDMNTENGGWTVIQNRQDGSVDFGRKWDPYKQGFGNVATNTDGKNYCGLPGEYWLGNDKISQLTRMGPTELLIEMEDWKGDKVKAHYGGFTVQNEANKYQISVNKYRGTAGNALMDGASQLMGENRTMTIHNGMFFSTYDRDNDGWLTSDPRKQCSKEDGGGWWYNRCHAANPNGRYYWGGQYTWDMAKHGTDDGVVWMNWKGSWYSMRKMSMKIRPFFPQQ
T1 sequence (P02679 27-453): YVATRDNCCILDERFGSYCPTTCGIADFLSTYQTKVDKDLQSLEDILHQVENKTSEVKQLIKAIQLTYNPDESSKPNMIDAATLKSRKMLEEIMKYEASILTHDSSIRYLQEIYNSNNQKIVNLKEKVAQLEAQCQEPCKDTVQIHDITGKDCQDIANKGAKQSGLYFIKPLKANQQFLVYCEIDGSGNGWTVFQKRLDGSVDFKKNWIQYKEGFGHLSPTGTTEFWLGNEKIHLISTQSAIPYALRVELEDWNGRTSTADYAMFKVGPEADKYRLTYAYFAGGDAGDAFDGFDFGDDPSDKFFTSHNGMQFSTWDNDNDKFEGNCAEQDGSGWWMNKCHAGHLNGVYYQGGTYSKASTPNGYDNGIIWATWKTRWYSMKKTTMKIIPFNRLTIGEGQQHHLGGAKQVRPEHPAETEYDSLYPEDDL
Experimental: Fibrinogen cleavage assay. MutF was mixed with different concentrations of A2M to reach various molar ratios, followed by a 30-minute incubation at 37° C. in PBS. Human fibrinogen (Sigma) was incubated with pre-mixed A2M:MutF protein complexes at different molar ratios for 1 hr at 37° C. Samples containing 5 ug of fibrinogen were loaded on 4-15% gel and fibrinogen was detected by Western Blot with an anti-fibrinogen (cell signaling Technology). Gels were imaged by iBright 1500.

[5] = test system: Elastin-F; assay: Elastin cleavage assay; format: biochemical; conditions: overnight at 37° C.; FIG. 6C
Experimental: Elastin cleavage assay. MutF was mixed with different concentrations of A2M to reach various molar ratios, followed by a 30-minute incubation at 37° C. in PBS. Elastin-F (1:100) was incubated with pre-mixed A2M:MutF protein complexes overnight at 37° C., and the degraded fluorescent signal was measured in the supernatant.

Compound: COc1cccc2c1C(=O)c1c(O)c3c(c(O)c1C2=O)C[C@@](O)(C(=O)CO)C[C@@H]3O[C@H]1C[C@H](N)[C@H](O)[C@H](C)O1 [doxorubicin, reference compound]
- Killing of cancer cells from chemo-naïve vs chemo-treated patients [1]: reduced killing of cancer cells isolated from chemo-treated relative to chemo-naïve patients

Compound: O=C1[O][Pt]2([NH][C@@H]3CCCC[C@H]3[NH]2)[O]C1=O [oxaliplatin, reference compound]
- Killing of cancer cells from chemo-naïve vs chemo-treated patients [1]: reduced killing of cancer cells isolated from chemo-treated relative to chemo-naïve patients

Compound: MutF: porcine pancreatic elastase (PPE) protein 'Mutant F', Q211F, SEQ ID NO: 5
- MutF activity in plasma [2]: plasma inhibits MutF activity
- Prothrombin time ([3]; FIG. 7A): increases PT and PTT times
- Partial Thromboplastin time ([3]; FIG. 7B): increases PT and PTT times
- Concentration of fibrinogen in plasma ([3]; FIG. 7C): causes reductions in fibrinogen levels
- Fibrinogen cleavage [4]: does cleave fibrinogen
- Elastin cleavage (fluorescent signal) [5]: does cleave elastin
